One substance from patent publication US20210187077A1, “GLP-1 Agonist Conjugates for Sustained Glycemic Control” (IDAHO STATE UNIVERSITY, priority 2019, published 2021) can be followed below.

The assay is described as follows: hydroxyapatite (HA) binding in vitro study (bone mineral affinity). The procedure:
To evaluate the bone mineral affinity of the GLP-1 conjugate described in Example 1, hydroxyapatite (HA) binding in vitro studies were conducted. Briefly, 10 μg of GLP-1 or equivalent amount of GLP-1 conjugate was mixed with 5 mg of HA powder in 500 μL of the binding buffer with various concentrations (double-distilled water (D.D.), 10 mM PBS [pH 7.4], 50 mM PBS [pH 7.4], acetate buffer [pH 4]) . Similarly, tubes containing an equivalent amount of GLP-1 or GLP-1 conjugate in corresponding buffers without HA were used as a negative control. Mixtures were shaken gently at room temperature for 1 hour and then were centrifuged at 10,000 g for 5 minutes. The supernatant was separated and assayed for unbound drug, using a fluorescence spectrometer (λEx 215 nm, λEm 305 nm). The percentage of HA binding was calculated as:
(Intensity of control−the intensity of supernatants)/Intensity of control×100%
Each experiment was measured in triplicate.

As to “H-HAE GTF TSD VSS YLE GQA A-K(Mal-PEGn-BP)-E FIA WLV KGR —NH2 [GLP-1 conjugate]”, where the note is “acidic pH (Acetate buffer pH 4 vs PBS pH 7.4) and lower buffer concentration (10 mM vs 50 mM)”, the “effect of pH and phosphate ion concentration on HA binding capacity” value was “higher binding”. Where the note is “various medium (D.D. water, 10 mM PBS pH 7.4, 50 mM PBS pH 7.4, acetate buffer pH 4), 5 mg HA, 1 hour, room temperature, p<0.01”, the “binding capacity to HA compared with plain GLP-1 peptide” value was “significantly different binding capacity to HA”.
